# Publication PMC6687188, “Novel lactate dehydrogenase inhibitors with in vivo efficacy against Cryptosporidium parvum” (PLoS Pathogens, 2019)
# Positions of bridges follow the written chain, without caps; N, C: chain ends. Non-standard residues stand in square brackets, D forms with d. Residues, ends and D or L forms follow the SMILES beside them. ξ: configuration not given here. *: point of attachment. ξNMePhe(4-NMe2) = CNC(Cc1ccc(N(C)C)cc1)C(=O)O; Picolinoyl(3-OH) = O=C(c1ncccc1O)*; ξPip(4-oxo) = O=C1CCNC(C(=O)O)C1; Phg = N[CH](C(=O)O)c1ccccc1; Cbz = O=C(OCc1ccccc1)*; Abu = CC[CH](N)C(=O)O; CH2Cl = ClC*
# Biological target: recombinant CpLDH protein (Cryptosporidium parvum, UniProt Q9GT92, F198L/K295E/R251K)
# Conditions: not given
row,SMILES,MEAN CpLDH INHIBITION (%)
1,Br.COC1CN(C)C(=Nc2cccc3ccccc23)S1 (centres unmarked) [NSC135996],-24.95%
2,CC1(C)C(O)OC(O)C1(C)C (centres unmarked) [NSC614928],-7.87%
3,CCN(CC)C(=S)[S-].[Na+] [NSC4857],-37.64%
4,CCCCCC(/C=C/[C@@H]1CC(=O)C[C@H]1O[Si](C)(C)C(C)(C)C)OCOCCOC (some centres unmarked) [NSC689228],-5.60%
5,Nc1ccn([C@@H]2C=C(CO)[C@@H](O)[C@H]2O)c(=O)n1 [NSC375575],-28.69%
6,COc1cc2oc(=O)cc(C)c2cc1[N+](=O)[O-] [NSC299879],-32.05%
7,CC1=NN(C(=O)c2ccncc2)C(=O)C1N=Nc1ccc(F)cc1 (centres unmarked) [NSC621094],-33.52%
8,CN(C)c1cccc(/C=C(\C#N)c2ccccc2)c1 [NSC667251],-17.96%
9,N#CCCN(c1ccc(C=O)cc1)S(=O)(=O)c1ccccc1 [NSC637914],-47.07%
10,CC(C)C1=CC2=CC[C@@H]3[C@](C)(CCC[C@@]3(C)C(=O)O)[C@H]2CC1 [NSC25149],-16.60%
11,O=C(O)/C=C\C(=O)O.[N-]=[N+]=Nc1ccc2c(c1)Sc1ccccc1N2CCCCN1CCN(Cc2ccc(C(=O)c3ccccc3)cc2)CC1 [NSC676963],-97.54%
12,CC1=CC23C(COC(=O)C24CO4)C(C(=O)O)=CC3C1C.NCc1ccccc1 (centres unmarked) [NSC136037],-0.26%
13,CCOC(=O)c1ccc(N=Cc2ccc(N(CCC#N)CCC#N)cc2)cc1 [NSC620279],-17.13%
14,C=C(C)[C@@H]1CC[C@]2(CO)CC[C@]3(C)[C@H](CC[C@@H]4[C@@]5(C)CC[C@H](O)C(C)(C)[C@@H]5CC[C@]43C)[C@@H]12 [NSC4644],-25.29%
15,CC(C)CC(NC(=O)OCc1ccccc1)C(=O)NC(Cc1ccccc1)C(=O)CCl (stereo not drawn) [NSC173904] (Cbz-Leu-Phe-CH2Cl; configuration not given here),-56.33%
16,COc1ccc2c(c1)CCc1c-2n[nH]c1-c1[nH]nc2c1CCc1cc(OC)ccc1-2 [NSC371846],-16.04%
17,O=C(NC1=C(Cl)C(=O)c2ccccc2C1=O)C(=O)C(C(=O)c1ccc2ccccc2c1)C1OC(=O)c2ccccc21 (centres unmarked) [NSC641233],-51.96%
18,C=C1C(=O)O[C@@H]2C[C@@H](C)[C@@H]3C=CC(=O)[C@@]3(C)[C@@H](O)[C@H]12 [NSC85236],-30.32%
19,COC(=O)c1[nH]c(=S)[nH]c(=O)c1-c1ccc(Cl)cc1 [NSC635140],-15.60%
20,Cc1cccc(NC(=O)/C=C/c2ccc([N+](=O)[O-])cc2)c1 [NSC139109],-11.32%
21,CO[C@H]1C[C@H](O[C@H]2CC[C@]3(C=O)[C@H]4CC[C@]5(C)[C@@H](C6=CC(=O)OC6)CC[C@]5(O)[C@@H]4CC[C@]3(O)C2)O[C@H](C)[C@H]1O[C@@H]1O[C@H](CO[C@@H]2O[C@H](CO)[C@@H](O)[C@H](O)[C@H]2O)[C@@H](O)[C@H](O)[C@H]1O [NSC7530],-3.24%
22,CN(CCc1ccccn1)c1ccc2c(c1)C(=O)c1ccccc1-2 [NSC24048],-65.48%

row,SMILES,MEAN CpLDH INHIBITION (%)
1,O=C(CC1(O)C(=O)Nc2c(Cl)ccc(Cl)c21)c1ccc(Cl)cc1Cl (centres unmarked) [NSC635436],-79.39%
2,Cc1ccc(NC(=S)C#N)c(C)c1 [NSC369318],-37.61%
3,CC(=O)OCCN1c2ccccc2Sc2cnccc21 [NSC168221],-24.94%
4,O=C1CC[C@H](NC(=O)Cc2ccccc2)C(=O)N1 [NSC620261],-132.95%
5,Nc1ccc(N)c2c1C(=O)c1ccccc1C2=O [NSC7833],-11.00%
6,COc1ccc2cccc(C(=N)c3ccc(C)c4c3CCC4)c2c1 [NSC625590],-11.59%
7,CC(C)[Si]1(C(C)C)OCC2OC(n3cnc4c(N)ncnc43)C(N)C2O[Si](C(C)C)(C(C)C)O1 (centres unmarked) [NSC687330],-17.98%
8,COc1ccc(/C(=N/O)C(c2ccc(OC)cc2)C2C(=O)Oc3ccccc32)cc1 (centres unmarked) [NSC641607],-85.63%
9,COC(=O)C1(C)CCCC2(C)c3cc(OC)ccc3C(=O)C(Br)C12 (centres unmarked) [NSC169600],-28.27%
10,Cc1cc(Cl)ccc1N1C(=O)C(=O)C(c2nc3ccccc3o2)C(=O)C1=O [NSC623051],-30.82%
11,COCC(=O)OC1CCn2c1nc1c2C(=O)C(C)=C(NC(C)=O)C1=O (centres unmarked) [NSC651084],-15.88%
12,O=C1C2=Nc3ccccc3C(O)N2c2ccccc21 (centres unmarked) [NSC292147],-13.84%
13,O=C1c2ccccc2C(=O)c2nc(-c3ccccc3)c(-c3ccccc3)nc21 [NSC629713],-5.77%
14,O=C1N[C@@H]2C(=C[C@H](O)[C@@H](O)[C@H]2O)c2cc3c(c(O)c21)OCO3 [NSC266535],-18.25%
15,Cc1cc(O)c2c(c1)C(=O)c1cc(O)cc(O)c1C2=O [NSC408120],-6.79%
16,CN(C)c1ccc(/C=C2\CCc3ccccc3C2=O)cc1Br [NSC643162],-31.17%
17,CC(=O)c1c(O)c(C)c(O)c2c1OC1=CC(=O)C(C(C)=O)C(=O)C12C (centres unmarked) [NSC5890],-32.64%
18,N#CC(c1ccccc1)N(CCCCCCN(C(=O)c1ccccc1)C(C#N)c1ccccc1)C(=O)c1ccccc1 (centres unmarked) [NSC681744],-15.26%
19,CC(C)C[C@H]1C(=O)N2CCC[C@H]2[C@]2(O)O[C@](NC(=O)[C@@H]3C=C4c5cccc6[nH]c(Br)c(c56)C[C@H]4N(C)C3)(C(C)C)C(=O)N12.CS(=O)(=O)O [NSC169774],-107.83%
20,C[n+]1cc2cc(O)c(O)cc2c2ccc3cc(O)c(O)cc3c21.Cl.[Cl-].c1ccncc1 [NSC184403],-44.28%
21,COc1ccc2[nH]c3c(C)c4ccncc4c(C)c3c2c1 [NSC69187],-16.81%
22,CCOC(=O)c1sc2[n+](c1C)C(=O)/C(=C/c1ccc([N+](=O)[O-])cc1)S2.[Cl-] [NSC658293],-21.86%

row,SMILES,MEAN CpLDH INHIBITION (%)
1,CCC1=C(C[C@H]2NCCc3cc(OC)c(OC)cc32)C[C@H]2c3cc(OC)c(OC)cc3CCN2C1 [NSC129414],-16.26%
2,O=C1c2ccccc2C(=O)c2c(NCCNCCO)ccc(O)c21 [NSC299187],-23.00%
3,COc1ccc(-c2cc(=O)c3c(OC)c(OC)c(OC)cc3o2)cc1 [NSC53908],-32.76%
4,CN(C)c1ccc(/C=C2\Cc3ccccc3C2=O)cc1Br [NSC643163],-30.02%
5,CN(C)[C@@H]1C(=O)C(C(N)=O)=C(O)[C@@]2(O)C(=O)C3=C(O)c4c(O)cccc4C[C@H]3C[C@@H]12 [NSC51812],-26.06%
6,CC(C)(C)CC(C)(C)NCC(O)COc1ccc(C(C)(C)c2ccc(OCC(O)CNC(C)(C)CC(C)(C)C)cc2)cc1.Cl (centres unmarked) [NSC145366],-111.71%
7,CC1=C[C@H]2O[C@@H]3[C@H](O)[C@@H](O)[C@](C)([C@@]2(CO)CC1)[C@]31CO1 [NSC269142],-41.10%
8,Cc1nc(Cl)c(C)c(Cl)n1 [NSC40212],-35.86%
9,O=C1C(CN2CCCCC2)CCCC1CN1CCCCC1 (centres unmarked) [NSC39202],-37.56%
10,CC1=C\C(O)CC(=O)Cc2nc(co2)C(=O)N2CCC=C2C(=O)OC(C(C)C)C(C)/C=C/C(=O)NC/C=C\1.CCC1NC(=O)C(NC(=O)c2ncccc2O)C(C)OC(=O)C(c2ccccc2)NC(=O)C2CC(=O)CCN2C(=O)C(Cc2ccc(N(C)C)cc2)N(C)C(=O)C2CCCN2C1=O (centres unmarked) [NSC125176] ({Picolinoyl(3-OH)}-T[Abu]P[ξNMePhe(4-NMe2)][ξPip(4-oxo)][Phg]; ester 1-C; configuration not given here),-0.47%
11,C1CN(c2nnc(N3CCC3)nn2)C1 [NSC625748],-117.70%
12,O=[N+]([O-])c1ccc(-c2cn(-c3ccc(Cl)cc3)cn2)cc1 [NSC610744],-19.53%
13,COc1cc(O)c2c(c1)C(=O)c1cc3c(c(O)c1C2=O)[C@@H](O[C@@H]1O[C@@H](C)[C@H](O)[C@@H](O)[C@H]1OC)[C@H](OC)[C@](C)(O)C3=O [NSC93419],-51.14%
14,COc1cc2c3cc1Oc1c(OC)c(OC)cc4c1[C@H](Cc1ccc(cc1)Oc1cc(ccc1O)C[C@H]3N(C)CC2)N(C)CC4 [NSC93135],-27.33%
15,[Mo] [NSC622116],-10.74%
16,O=C(CC(O)(C(F)(F)F)C(F)(F)Cl)CC(O)(C(F)(F)F)C(F)(F)Cl (centres unmarked) [NSC659174],-13.23%
17,CN(Cc1cnc2nc(N)nc(N)c2n1)c1ccc(C(=O)N[C@@H](CCC(=O)O)C(=O)O)c2ccccc12 [NSC174121],-134.26%
18,CC(C)[C@@H](C)/C=C/[C@@H](C)[C@H]1CC[C@H]2C3=CC=C4C[C@@H](O)CC[C@]4(C)[C@H]3CC[C@]12C [NSC62791],-22.35%
19,NC(N)=NCCCS(=O)(=O)Nc1ccc(Nc2c3ccccc3nc3cc([N+](=O)[O-])ccc23)cc1 [NSC177365],-212.36%
20,Cc1ccc(CC2(OCCN(C)C)CCC(C(C)(C)C)CC2)cc1.O=C(O)/C=C/C(=O)O (centres unmarked) [NSC670225],-54.38%

# Same assay, conditions: 20 μM compound; 10 mM pyruvate, 1 mM NADH; values below 0 = augmenters
row,SMILES,MEAN CpLDH INHIBITION (%)
1,C/C(=N\NC(=S)N1CCC1)c1ccccn1 [NSC319726],-58.85%
